This assay deals with cows with luteal P4 insufficiency. Description: Study II: pregnancy rate after P4 supplementation with CIDR on Day 5 post AI in cows with luteal P4 insufficiency. As to conditions: mean milk P4 on Day 5 post AI 1 to 1.99 ng/ml; CIDR inserted Day 5 post AI for seven days. It is filed as in vivo, Holstein-Friesian cows. How it is done:
Milk samples for P4 assay and reproductive data were collected from British Friesian and Holstein-Friesian cows in seven commercial herds. The cows were housed in a free-stall system and fed rations to meet their production and maintenance requirements. Data on calving date, parity, AI date and pregnancy were recorded. For the preliminary study, milk samples were collected daily for P4 determination from Day 7 postpartum until 100 days of the next gestation. The sampling protocol for animals in Studies I and II was limited to three milk samples per animal on Days 0, 5 and 24 post AI. […]
Milk P4 concentrations in an un-extracted aliquot of whole milk were measured using either radio immunoassay (RIA) as described by Lamming and Bulman (Lamming, G. E. and D. C. Bulman (1976) Br. Vet. J. 132: 507-517) and Bulman and Lamming (Bulman D. C. and G. E. Lamming (1978) J. Reprod. Fertil. 54: 447-458) or enzyme linked immunosorbent assay (ELISA) kit (Ridgeway Science Ltd., Gloucestershire, UK) as illustrated by Darwash et al. (Darwash A. O et al (1999b) Anim Sci. (in press)). All samples and quality controls (QC) were assayed in duplicate and the mean value of both readings were used to indicate milk P4 concentrations. […]
Following determination of pregnancy, the accuracy of using milk P4 concentrations on Day 24 post AI to predict pregnancy rates was calculated. […]

Molecules are shown by their SMILES.

Regarding `CC(=O)[C@H]1CC[C@H]2[C@@H]3CCC4=CC(=O)CC[C@]4(C)[C@H]3CC[C@]12C` [P4, progesterone], the “Pregnancy (%), treated” value amounted to 57.9%.
